# How the values were obtained:
# 66 c1.4-GFP tumors [1] = test: KI-67 immunohistochemistry of cell proliferation in tumors; type: in vivo, Balb/c mice; conditions: liposomal formulation by aerosol, vs control
# [2] = system: 66 c1.4 GFP murine mammary tumor cells; test: TUNEL assay for apoptosis in vivo in 66 c1.4-GFP tumor sections; parameters: species or system Balb/c mice; conditions: liposomal formulation by aerosol, vs control
# From the text: Deparaffinized sections (5 μm) of tumor tissue were used to assess apoptosis using reagents supplied in the ApopTag In Situ Apoptosis Detection kit (Intergen, Purchase, N.Y.) according to the manufacturer's instructions. Nuclei that stained brown were scored as positive for apoptosis and those that stained blue were scored as negative. At least sixteen 400× microscopic fields were scored per tumor. Data are presented as the mean±S.E. number of apoptotic cells counted in three separate tumors from each group. Pictures of tumor tissue were taken at 1000× magnification.
# 66 c1.4-GFP tumors [3] = test: CD31 immunohistochemistry of tumor blood vessel numbers; type: in vivo, Balb/c mice; conditions: liposomal formulation by aerosol, vs control
# [4] = system: 66 c1.4 GFP murine mammary tumor cells; test: Tumor growth of 66 c1.4-GFP mammary tumor cells in Balb/c mice (tumor volume); conditions: Example 18: liposomal formulation by aerosol, 75 mg in nebulizer/day
# Method: 66 c1.4-GFP cells were harvested by trypsinization, centrifuged, resuspended in McCoy's media, containing no supplements at a density of 2×10^5/100 μl. Mice were injected in the inguinal area at a point equal distance between the 4th and 5th nipples on the right side using a 23 gauge needle.
# 50 mice were assigned (10 per group) to aerosol treatment, aerosol control, oral treatment, oral control, or to the no treatment group so that the average tumor volume for all groups were closely matched. […] Tumors were measured using calipers every other day, and volumes were calculated using the formula: volume (mm^3) [width (mm)^2×length (mm)]/2. Body weights were determined weekly.
# Balb/c mice were injected with 200,000 66 c1.4 GFP cells subcutaneous in the mammary fat pad area between the 4th and 5th nipple on the right side of the body.
# Mice are injected with 200,000 66 c1.4 GFP murine mammary tumor cells as described on day 0. Treatments are initiated on day 9 when tumors reached 1-3 mm in size. Aerosol treatments of α-TEA liposomes (5 mg α-TEA/mouse) are administered daily for 16 days (FIG. 8). Data represent the mean+/−Standard Error (SE), N=10 mice for control and treatment groups.
# Balb/c mice were injected s.c. with 2×10^5 66 c1.4-GFP cells in the inguinal area between the 4th and 5th nipple on the right side of the body. When tumors reached 2×2-4×4 mm (9 days after tumor injection), mice were placed into 5 groups ((Group 1: untreated control, Group 2: liposome/aerosol control, Group 3: liposomal α-TEA aerosol treatment, Group 4: peanut oil/gavage control, Group 5: α-TEA in peanut oil/gavage treatment) of 10 mice/group) such that the mean tumor volume of each group was closely matched. Daily treatments were initiated on day 9 after tumor injection.
# Balb/c mice were injected with 200,000 66 c1.4 GFP cells subcutaneous in the mammary fat pad area between the 4th and 5th nipple on the right side of the body. […] Animals were treated with α-TEA in liposome, vitamin E succinate in liposome, or control liposome alone via aerosol, 7 days per week, for 21 days. Animals were given 75 mg compound via nebulization per day such that each animal received 36 μg compound per day.
# The size of the tumors, 9-21 days after injection of 200,000 66 c1.4 GFP cells between the 4th and 5th nipple on the right side of each mouse, is determined. Treatments are initiated on day 9 after tumor inoculation. Each group consists of n=10+/−SE. Gavage Treatment=Treatments of 5 mg of α-TEA in ethanol and peanut oil (0.1 ml volume) are administered daily starting on day 9 after tumor inoculation and continuing through day 21. Gavage Control=Mice received peanut oil and ethanol alone (0.1 ml volume)/daily, starting on day 9 after tumor inoculation and continuing through day 21. Data (tumor size) are depicted as the mean+/−standard error for days 9, 11, 13, 15, 17, 19, and 21.
# Balb/c mice were injected with 200,000 66 c1.4 GFP cells subcutaneous in the mammary fat pad area between the 4th and 5th nipple on the right side of the body. […] Animals were treated with α-TEA in liposome vitamin E succinate in liposome, or control liposome alone via oral gavage, 2 times per day, 7 days per week, for 21 days. Animals were given a total of 6 mg compound per day.
smiles,measurement,setting,value
Cc1c(C)c2c(c(C)c1O)CCC(C)(CCCC(C)CCCC(C)CCCC(C)C)O2 (racemic) [dl-α-tocopherol],% Reduction of KI67 cell proliferation,66 c1.4-GFP tumors [1],33%
same,% Enhanement of TUNEL positive apoptotic cells,[2],44%
same,% Reduction of CD31 tumor blood vessel numbers,66 c1.4-GFP tumors [3],51%
same,inhibition of tumor growth,[4]; day 15 of treatment,81%
same,inhibition of tumor growth,[4]; day 17 of treatment,73%

# Source: US20030236301A1, “Liposomal delivery of vitamin E based compounds” (priority 2001, published 2003)
